Experiments:
Vitamin D3 receptor [1] = target: T1, Vitamin D3 receptor (Homo sapiens, UniProt P11473); experiment: Inhibition of transactivation of human VDR in COS7 cells; assay type: functional, cell-based, COS-7
T1 sequence (P11473 whole entry): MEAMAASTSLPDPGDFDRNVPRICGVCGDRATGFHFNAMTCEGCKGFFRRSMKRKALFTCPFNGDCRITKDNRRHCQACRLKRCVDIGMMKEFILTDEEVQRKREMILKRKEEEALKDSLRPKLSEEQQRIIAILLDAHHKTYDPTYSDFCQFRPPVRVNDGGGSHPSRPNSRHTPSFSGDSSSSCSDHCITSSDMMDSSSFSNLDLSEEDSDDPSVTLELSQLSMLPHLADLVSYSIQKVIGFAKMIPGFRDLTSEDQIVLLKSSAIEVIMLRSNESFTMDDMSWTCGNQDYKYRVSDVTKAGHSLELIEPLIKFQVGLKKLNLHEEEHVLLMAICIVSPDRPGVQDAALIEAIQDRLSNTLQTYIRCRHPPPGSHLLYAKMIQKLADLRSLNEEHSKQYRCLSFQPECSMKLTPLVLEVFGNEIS

Vitamin D3 receptor [2] = target: T1, Vitamin D3 receptor; experiment: Antagonistic activity against human VDR in presence of 1,25(OH)2D3; assay type: functional

IC50 (Vitamin D3 receptor [1])	IC50 (Vitamin D3 receptor [2])	Compound
0.4 µM	0.05 µM	C[C@H](/C=C/C[C@H](O)C12CC3CC(CC(C3)C1)C2)[C@H]1CC[C@H]2/C(=C/C=C3C[C@@H](O)C[C@H](O)C3)CCC[C@]12C
0.3 µM	–	C=C1C[C@H](C[C@@H](C)[C@H]2CC[C@H]3/C(=C/C=C4C[C@@H](O)C(=C)[C@H](O)C4)CCC[C@]23C)OC1=O

Source: ChEMBL document CHEMBL1149414, “Vitamin D receptor: ligand recognition and allosteric network” (J Med Chem, 2006)
